Reference: patent US8921376B2, “Pyrrolopyridines useful as inhibitors of protein kinase” (Vertex Pharmaceuticals Incorporated, priority 2005, dated 2014)
pKi: −log10 of the molar value.

Tests used:
Type in all cases: biochemical
Settings in all cases: Table 6; enzyme inhibition data (Ki)
ROCK I = ROCK I (Homo sapiens, UniProt Q13464); assay: ROCK-I inhibition assay (radioactive enzyme assay, MBP substrate)
Method in brief: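 Human ROCK at 5 nM phosphorylated 27 μM myelin basic protein with 13 μM [γ-33P]ATP (final) in HEPES pH 7.5, MgCl2, NaCl, DTT and 1.5% DMSO. Reactions ran 2 h at room temperature before TCA quench and filter-plate scintillation counting. After background subtraction, data were fit to give Ki(app).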

JAK3 = molecular target: T1, JAK3 (Homo sapiens, UniProt P52333); assay: JAK3 inhibition assay (33P incorporation into poly(Glu)4Tyr)
T1 sequence (P52333 1-1124): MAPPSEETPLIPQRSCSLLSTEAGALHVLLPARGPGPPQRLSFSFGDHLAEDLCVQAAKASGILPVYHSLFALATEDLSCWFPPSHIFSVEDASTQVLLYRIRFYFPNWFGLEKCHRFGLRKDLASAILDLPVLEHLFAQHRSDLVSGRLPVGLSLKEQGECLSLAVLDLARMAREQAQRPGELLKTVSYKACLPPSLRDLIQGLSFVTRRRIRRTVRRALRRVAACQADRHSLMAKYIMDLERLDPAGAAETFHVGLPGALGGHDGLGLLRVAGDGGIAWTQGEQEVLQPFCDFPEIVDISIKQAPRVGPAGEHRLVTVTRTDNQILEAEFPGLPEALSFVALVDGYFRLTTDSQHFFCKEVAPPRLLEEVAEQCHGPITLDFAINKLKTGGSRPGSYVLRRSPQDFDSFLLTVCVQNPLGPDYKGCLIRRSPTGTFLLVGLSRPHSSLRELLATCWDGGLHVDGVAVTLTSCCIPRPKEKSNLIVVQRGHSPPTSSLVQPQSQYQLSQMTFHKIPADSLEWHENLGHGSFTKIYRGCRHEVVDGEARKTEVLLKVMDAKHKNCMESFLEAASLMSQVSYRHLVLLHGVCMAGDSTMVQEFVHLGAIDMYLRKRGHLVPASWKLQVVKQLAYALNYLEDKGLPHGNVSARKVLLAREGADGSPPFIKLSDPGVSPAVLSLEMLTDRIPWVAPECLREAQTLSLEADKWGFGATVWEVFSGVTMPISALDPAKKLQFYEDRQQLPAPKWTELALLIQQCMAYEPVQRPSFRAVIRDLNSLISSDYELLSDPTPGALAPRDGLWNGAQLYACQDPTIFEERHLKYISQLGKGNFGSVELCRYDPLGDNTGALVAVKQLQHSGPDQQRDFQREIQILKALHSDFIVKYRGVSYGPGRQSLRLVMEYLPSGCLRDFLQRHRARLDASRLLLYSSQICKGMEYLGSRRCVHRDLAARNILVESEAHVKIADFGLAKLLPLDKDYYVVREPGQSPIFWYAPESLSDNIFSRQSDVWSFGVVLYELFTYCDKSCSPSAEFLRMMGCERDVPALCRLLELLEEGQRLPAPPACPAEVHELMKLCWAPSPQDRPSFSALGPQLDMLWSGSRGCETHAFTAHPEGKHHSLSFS
Method in brief: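 After TCA quench and filter harvest, scintillation counting of 33P measured phosphorylation of poly(Glu)4Tyr (1 μM) by 1 nM JAK3. The 20-min, 25° C. reaction contained 5 μM ATP (200 μCi/μmole) in pH 7.4 HEPES buffer with 10 mM MgCl2.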

JAK2 = JAK2 (Homo sapiens, UniProt O60674); assay: JAK2 inhibition assay (as Example 3 with JAK-2 enzyme)
Method in brief: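 In HEPES pH 7.4 buffer with 10 mM MgCl2, 1 mM DTT, 25 mM NaCl and 0.01% BSA, JAK2 enzyme phosphorylated poly(Glu)4Tyr (final 15 μM) using 33P-ATP (final 12 μM) for 20 min at room temperature (25 °C). Reactions stopped with TCA; incorporated 33P measured by scintillation after filtration.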

Sequence of JAK2 (O60674 whole entry): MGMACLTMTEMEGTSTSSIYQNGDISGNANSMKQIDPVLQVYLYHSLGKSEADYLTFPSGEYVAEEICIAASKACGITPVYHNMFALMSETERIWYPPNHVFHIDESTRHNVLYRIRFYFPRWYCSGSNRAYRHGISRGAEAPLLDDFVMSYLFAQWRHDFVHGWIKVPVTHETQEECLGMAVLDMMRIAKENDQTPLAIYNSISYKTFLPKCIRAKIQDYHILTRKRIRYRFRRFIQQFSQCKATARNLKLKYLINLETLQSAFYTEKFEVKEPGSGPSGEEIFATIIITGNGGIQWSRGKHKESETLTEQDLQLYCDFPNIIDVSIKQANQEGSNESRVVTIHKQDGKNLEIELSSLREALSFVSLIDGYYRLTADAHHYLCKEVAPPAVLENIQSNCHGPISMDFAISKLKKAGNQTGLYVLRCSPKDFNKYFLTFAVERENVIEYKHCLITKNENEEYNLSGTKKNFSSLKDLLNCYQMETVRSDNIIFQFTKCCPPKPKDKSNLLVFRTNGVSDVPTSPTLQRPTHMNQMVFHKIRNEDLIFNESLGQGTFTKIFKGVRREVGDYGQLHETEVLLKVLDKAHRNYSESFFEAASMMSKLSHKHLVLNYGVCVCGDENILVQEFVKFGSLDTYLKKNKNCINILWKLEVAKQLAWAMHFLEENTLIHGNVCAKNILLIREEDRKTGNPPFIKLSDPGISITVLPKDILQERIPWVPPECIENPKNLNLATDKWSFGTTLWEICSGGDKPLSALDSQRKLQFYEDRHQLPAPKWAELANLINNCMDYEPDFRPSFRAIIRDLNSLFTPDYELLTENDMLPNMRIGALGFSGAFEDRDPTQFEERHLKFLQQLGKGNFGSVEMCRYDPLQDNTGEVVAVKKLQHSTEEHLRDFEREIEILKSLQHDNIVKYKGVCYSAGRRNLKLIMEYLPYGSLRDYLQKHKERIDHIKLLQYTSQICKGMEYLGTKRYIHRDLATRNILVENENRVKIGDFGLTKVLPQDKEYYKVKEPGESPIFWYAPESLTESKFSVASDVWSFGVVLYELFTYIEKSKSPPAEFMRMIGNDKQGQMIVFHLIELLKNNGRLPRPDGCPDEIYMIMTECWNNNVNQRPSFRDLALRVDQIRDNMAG
Sequence of ROCK I (Q13464 whole entry): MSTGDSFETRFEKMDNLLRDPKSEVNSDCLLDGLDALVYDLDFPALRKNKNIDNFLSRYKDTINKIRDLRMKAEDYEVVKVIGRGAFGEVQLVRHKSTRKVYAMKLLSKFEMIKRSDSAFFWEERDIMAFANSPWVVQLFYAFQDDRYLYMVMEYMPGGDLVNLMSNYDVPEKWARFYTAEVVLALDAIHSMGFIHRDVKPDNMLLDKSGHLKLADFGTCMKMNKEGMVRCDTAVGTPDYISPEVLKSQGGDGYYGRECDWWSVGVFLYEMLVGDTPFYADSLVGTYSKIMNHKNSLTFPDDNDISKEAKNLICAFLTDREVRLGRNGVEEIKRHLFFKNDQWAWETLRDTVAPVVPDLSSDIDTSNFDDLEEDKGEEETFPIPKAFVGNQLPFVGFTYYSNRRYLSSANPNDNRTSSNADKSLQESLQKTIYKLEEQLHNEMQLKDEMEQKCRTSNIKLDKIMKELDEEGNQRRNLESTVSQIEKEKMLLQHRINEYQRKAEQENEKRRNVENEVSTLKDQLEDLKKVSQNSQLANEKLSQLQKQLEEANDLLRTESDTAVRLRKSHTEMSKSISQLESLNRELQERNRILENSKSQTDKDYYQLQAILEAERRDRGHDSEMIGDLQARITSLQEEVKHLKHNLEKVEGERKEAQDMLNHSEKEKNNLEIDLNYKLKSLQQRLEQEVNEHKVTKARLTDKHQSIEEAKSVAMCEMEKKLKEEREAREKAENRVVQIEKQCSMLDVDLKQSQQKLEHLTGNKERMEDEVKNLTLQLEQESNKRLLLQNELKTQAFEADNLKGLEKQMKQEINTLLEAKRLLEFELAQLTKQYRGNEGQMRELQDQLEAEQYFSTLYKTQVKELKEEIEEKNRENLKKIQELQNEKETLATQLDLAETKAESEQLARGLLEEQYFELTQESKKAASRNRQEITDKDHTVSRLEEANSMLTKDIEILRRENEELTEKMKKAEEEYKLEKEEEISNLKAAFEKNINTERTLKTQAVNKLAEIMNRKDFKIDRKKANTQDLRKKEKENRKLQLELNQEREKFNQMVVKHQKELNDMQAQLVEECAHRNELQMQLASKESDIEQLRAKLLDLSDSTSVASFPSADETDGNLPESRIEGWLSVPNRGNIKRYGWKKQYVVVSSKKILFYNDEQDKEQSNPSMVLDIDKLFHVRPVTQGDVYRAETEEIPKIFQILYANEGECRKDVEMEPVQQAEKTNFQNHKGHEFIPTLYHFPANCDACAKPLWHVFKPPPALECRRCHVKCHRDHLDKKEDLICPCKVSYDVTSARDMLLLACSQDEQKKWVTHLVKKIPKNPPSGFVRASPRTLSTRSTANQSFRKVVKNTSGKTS

pKi (ROCK I)	pKi (JAK3)	pKi (JAK2)	Compound
5.30 to 6.30	> 6.30	> 6.30	CCN(CCO)C(=O)c1cc(-c2c(Cl)cnc3[nH]ccc23)c[nH]1 [compound 345]
< 5.40	> 6.30	> 6.30	O=C(c1cc(-c2c(Cl)cnc3[nH]ccc23)c[nH]1)N1CCCC1CO (stereo not drawn) [compound 346]
< 5.40	5.30 to 6.30	5.30 to 6.30	CCOC(=O)C1CCN(C(=O)c2cc(-c3c(Cl)cnc4[nH]ccc34)c[nH]2)CC1 [compound 348]
< 5.40	> 6.30	> 6.30	O=C(c1cc(-c2c(Cl)cnc3[nH]ccc23)c[nH]1)N1CCC(O)C1 (stereo not drawn) [compound 350]
5.30 to 6.30	> 6.30	> 6.30	CCN(Cc1ccncc1)C(=O)c1cc(-c2c(Cl)cnc3[nH]ccc23)c[nH]1 [compound 353]
< 5.40	5.30 to 6.30	> 6.30	CN(C)C1CCN(C(=O)c2cc(-c3c(Cl)cnc4[nH]ccc34)c[nH]2)C1 (stereo not drawn) [compound 355]
5.30 to 6.30	> 6.30	> 6.30	CN(CC(F)(F)F)C(=O)c1cc(-c2c(Cl)cnc3[nH]ccc23)c[nH]1 [compound 360]
> 6.30	> 6.30	> 6.30	CCN(CCO)C(=O)c1cc(-c2ccnc3[nH]ccc23)c[nH]1 [compound 361]
5.30 to 6.30	5.30 to 6.30	> 6.30	O=C(c1cc(-c2ccnc3[nH]ccc23)c[nH]1)N1CCCC1CO (stereo not drawn) [compound 362]
5.30 to 6.30	5.30 to 6.30	5.30 to 6.30	CCOC(=O)C1CCN(C(=O)c2cc(-c3ccnc4[nH]ccc34)c[nH]2)CC1 [compound 364]
> 6.30	5.30 to 6.30	5.30 to 6.30	CN(C)CCCN(C)C(=O)c1cc(-c2ccnc3[nH]ccc23)c[nH]1 [compound 365]
5.30 to 6.30	5.30 to 6.30	5.30 to 6.30	O=C(c1cc(-c2ccnc3[nH]ccc23)c[nH]1)N1CCC(O)C1 (stereo not drawn) [compound 366]
> 6.30	> 6.30	> 6.30	CCN(Cc1ccncc1)C(=O)c1cc(-c2ccnc3[nH]ccc23)c[nH]1 [compound 369]
> 6.30	> 6.30	> 6.30	CN(Cc1cccnc1)C(=O)c1cc(-c2ccnc3[nH]ccc23)c[nH]1 [compound 370]
5.30 to 6.30	5.30 to 6.30	5.30 to 6.30	CN(C)C1CCN(C(=O)c2cc(-c3ccnc4[nH]ccc34)c[nH]2)C1 (stereo not drawn) [compound 371]
5.30 to 6.30	5.30 to 6.30	5.30 to 6.30	O=C(c1cc(-c2ccnc3[nH]ccc23)c[nH]1)N1CCCC(O)C1 (stereo not drawn) [compound 372]
> 6.30	> 6.30	> 6.30	N#CC1CCCN1C(=O)c1cc(-c2ccnc3[nH]ccc23)c[nH]1 (stereo not drawn) [compound 373]
> 6.30	> 6.30	> 6.30	O=C(c1cc(-c2ccnc3[nH]ccc23)c[nH]1)N1CCCC1C(F)(F)F (stereo not drawn) [compound 374]
> 6.30	> 6.30	> 6.30	CC1CCC(C)N1C(=O)c1cc(-c2ccnc3[nH]ccc23)c[nH]1 (stereo not drawn) [compound 375]
> 6.30	> 6.30	> 6.30	O=C(CC1CCCC1)Nc1nc(-c2ccnc3[nH]ccc23)cs1 [compound 379]
< 5.40	< 5.30	< 5.30	NC(=O)c1ccccc1-c1ccnc2[nH]ccc12 [compound 380]
< 5.40	5.30 to 6.30	5.30 to 6.30	CNc1ccccc1-c1ccnc2[nH]ccc12 [compound 381]
5.30 to 6.30	> 6.30	> 6.30	Fc1cnc2[nH]ccc2c1-c1ccc(CN(CCC(F)(F)F)CC2CC2)o1 [compound 382]
5.30 to 6.30	> 6.30	> 6.30	N#CCCN(CCC(F)(F)F)C(=O)c1cc(-c2c(F)cnc3[nH]ccc23)c[nH]1 [compound 384]
> 6.30	> 6.30	> 6.30	O=C(c1cc(-c2c(F)cnc3[nH]ccc23)c[nH]1)N(CC1CC1)CC(F)(F)F [compound 387]
> 6.30	> 6.30	> 6.30	CCCN(CC(F)(F)F)C(=O)c1cc(-c2c(F)cnc3[nH]ccc23)c[nH]1 [compound 388]
5.30 to 6.30	> 6.30	> 6.30	O=C(c1cc(-c2c(F)cnc3[nH]ccc23)c[nH]1)N(CCC(F)(F)F)Cc1ccccc1 [compound 389]

Second part, the compound before the results:

Compound	pKi (ROCK I)	pKi (JAK3)	pKi (JAK2)
CCN(Cc1ccccc1)C(=O)c1cc(-c2c(Cl)cnc3[nH]ccc23)c[nH]1 [compound 344]	5.30 to 6.30	> 6.30	> 6.30
O=C(c1cc(-c2c(Cl)cnc3[nH]ccc23)c[nH]1)N1CCC(CO)CC1 [compound 347]	5.30 to 6.30	> 6.30	> 6.30
CN(C)CCCN(C)C(=O)c1cc(-c2c(Cl)cnc3[nH]ccc23)c[nH]1 [compound 349]	< 5.40	5.30 to 6.30	5.30 to 6.30
CN(CCc1ccccn1)C(=O)c1cc(-c2c(Cl)cnc3[nH]ccc23)c[nH]1 [compound 351]	< 5.40	> 6.30	> 6.30
NC(=O)C1CCCN1C(=O)c1cc(-c2c(Cl)cnc3[nH]ccc23)c[nH]1 (stereo not drawn) [compound 352]	< 5.40	> 6.30	> 6.30
CN(Cc1cccnc1)C(=O)c1cc(-c2c(Cl)cnc3[nH]ccc23)c[nH]1 [compound 354]	5.30 to 6.30	> 6.30	> 6.30
O=C(c1cc(-c2c(Cl)cnc3[nH]ccc23)c[nH]1)N1CCCC(O)C1 (stereo not drawn) [compound 356]	5.30 to 6.30	> 6.30	> 6.30
N#CC1CCCN1C(=O)c1cc(-c2c(Cl)cnc3[nH]ccc23)c[nH]1 (stereo not drawn) [compound 357]	5.30 to 6.30	> 6.30	> 6.30
O=C(c1cc(-c2c(Cl)cnc3[nH]ccc23)c[nH]1)N1CCCC1C(F)(F)F (stereo not drawn) [compound 358]	5.30 to 6.30	> 6.30	> 6.30
CC1CCC(C)N1C(=O)c1cc(-c2c(Cl)cnc3[nH]ccc23)c[nH]1 (stereo not drawn) [compound 359]	5.30 to 6.30	> 6.30	> 6.30
O=C(c1cc(-c2ccnc3[nH]ccc23)c[nH]1)N1CCC(CO)CC1 [compound 363]	5.30 to 6.30	5.30 to 6.30	> 6.30
CN(CCc1ccccn1)C(=O)c1cc(-c2ccnc3[nH]ccc23)c[nH]1 [compound 367]	> 6.30	> 6.30	> 6.30
NC(=O)C1CCCN1C(=O)c1cc(-c2ccnc3[nH]ccc23)c[nH]1 (stereo not drawn) [compound 368]	5.30 to 6.30	> 6.30	5.30 to 6.30
CN(CC(F)(F)F)C(=O)c1cc(-c2ccnc3[nH]ccc23)c[nH]1 [compound 376]	> 6.30	> 6.30	> 6.30
O=C(c1cc(-c2ccnc3[nH]ccc23)c[nH]1)N1CCC(O)C1 (stereo not drawn) [compound 377]	> 6.30	5.30 to 6.30	5.30 to 6.30
CC(C)CC(=O)Nc1nc(-c2ccnc3[nH]ccc23)cs1 [compound 378]	> 6.30	> 6.30	> 6.30
C=CCN(CC=C)C(=O)c1cc(-c2c(F)cnc3[nH]ccc23)c[nH]1 [compound 383]	5.30 to 6.30	> 6.30	> 6.30
C=CCN(C(=O)c1cc(-c2c(F)cnc3[nH]ccc23)c[nH]1)C(C)c1ccccc1 (stereo not drawn) [compound 385]	5.30 to 6.30	> 6.30	> 6.30
CN(CCC#N)C(=O)c1cc(-c2c(F)cnc3[nH]ccc23)c[nH]1 [compound 386]	5.30 to 6.30	> 6.30	> 6.30
